Where two headings read alike, the source gives them in different places.
Experiments:
[1] = test system: HCV 1b-BB7 subgenomic replicon; assay: microbe, parasite or virus in culture; type: cell-based, HCV genotype 1b; conditions: Hepatitis C virus, stable replicon
[2] = test system: chimeric replicon with genotype 3a NS5B; assay: microbe, parasite or virus in culture; type: cell-based, HCV genotype 3a; conditions: Hepatitis C virus, read-out: 3a chimera 5% FBS EC50
[3] = test system: HCV 1a-H77 transient subgenomic replicon in Huh-7 derived cell line; assay: microbe, parasite or virus in culture; type: cell-based, HCV genotype 1a; conditions: Hepatitis C virus, Huh-7; transient replicon, 5% FBS; read-out: Transient Replicon 1a H77 5% FBS EC50
Procedure: (§1) In addition to the stable replicon inhibition assays, transient replicon assays were performed. Transient replicons are identical to the 1a-H77 and 1a-H77-C316Y constructs, except they lack the Neo gene, making it impossible to establish stable cell lines. A T7 Megascript RNA synthesis kit (Ambion) was used to transcribe the HCV subgenomic RNA. The HCV RNA was then precipitated with lithium chloride according to manufacturer's instructions. The HCV subgenomic replicon RNA was transfected via electroporation into a Huh-7 derived cell line as described (Middleton T, et al. J. Virological Methods 2007; 145(2): 137-145). Transfected cells were diluted and plated in 96 well plates at 5×10^3 cells per well in DMEM. Four hours post-transfection, the wells from one plate were harvested for luciferase measurement. This plate provides a measure of the amount of translatable input RNA, and therefore transfection efficiency. To the wells of the remaining plates, a 3-fold dilution series of test compounds was added in DMSO (0.5% DMSO final concentration), and plates were incubated at 37° C., 5% CO2 in a humidified incubator for 4 days. After this period, the media was removed and the plates were washed with 100 μL phosphate-buffered saline per well. For the luciferase assay, 30 μL of Passive Lysis buffer (Promega) was added to each well, and then the plates were incubated for 15 minutes with rocking to lyse the cells. Luciferin solution (100 μL, Promega) was added to each well, and luciferase activity was measured with a Victor II luminometer (Perkin-Elmer). The EC50 values were calculated using GraphPad Prism 4 software.

[4] = test system: chimeric replicon with 2a-J6CF-derived NS5B; assay: microbe, parasite or virus in culture; type: cell-based, HCV genotype 2a; conditions: Hepatitis C virus, read-out: 2a chimera 5% FBS EC50
[5] = test system: chimeric replicon with genotype 2b NS5B; assay: microbe, parasite or virus in culture; type: cell-based, HCV genotype 2b; conditions: Hepatitis C virus, read-out: 2b chimera 5% FBS EC50
[6] = target: T1, HCV NS5B polymerase 1a-H77 (Hepatitis C virus genotype 1a, UniProt P27958); assay: biochemical; set-up: species or system HCV genotype 1a; conditions: enzyme, strain 1a H77; read-out: HCV Polymerase Strain 1a H77 IC50
T1 construct: six-histidine tag; made in house; host or cells: E. coli
Procedure, shortened: (§2)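 E. coli-expressed NS5B (residues 1-570, His-tagged) transcribed a 2.1 kb HCV 1b negative-strand 3′-end RNA template (5 nM) with 20 μM CTP, 20 μM ATP and 0.284 μM [3H]UTP for 3 h at 30° C. Spermine-precipitated RNA was filter-captured and counted by scintillation; IC50 from nonlinear regression.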

[7] = test system: HCV NS5B polymerase 1a-H77-C316Y; assay: biochemical; set-up: species or system HCV genotype 1a; conditions: ratio of enzyme IC50s, 1a H77-C316Y / 1a H77
Procedure, shortened: as §2

[8] = target: T2, HCV NS5B polymerase 1a-H77-C316Y (Hepatitis C virus genotype 1a, UniProt P27958, C2736Y); assay: biochemical; set-up: species or system HCV genotype 1a
T2 construct: six-histidine tag; made in house; host or cells: E. coli
Procedure, shortened: as §2

[9] = test system: HCV 1a-H77 subgenomic replicon; assay: microbe, parasite or virus in culture; type: cell-based, HCV genotype 1a; conditions: Hepatitis C virus, stable replicon
[10] = target: T3, HCV NS5B polymerase 1b BK strain (Hepatitis C virus genotype 1b, UniProt P26663); assay: HCV NS5B polymerase enzymatic inhibition assay, strain 1b BK; type: biochemical; conditions: enzyme, strain 1b BK; read-out: HCV Polymerase Strain 1b BK IC50
T3 construct: six-histidine tag; made in house; host or cells: E. coli
Procedure, shortened: as §2

[11] = test system: chimeric replicon with genotype 4a NS5B; assay: microbe, parasite or virus in culture; type: cell-based, HCV genotype 4a; conditions: Hepatitis C virus, read-out: 4a chimera 5% FBS EC50
[12] = test system: HCV 1a-H77-C316Y transient subgenomic replicon in Huh-7 derived cell line; assay: microbe, parasite or virus in culture; type: cell-based, HCV genotype 1a; conditions: for EC50: Hepatitis C virus, Huh-7, read-out: Transient Replicon 1a H77-C316Y 5% FBS EC50; for Transient Replicon Fold Resistance C316Y/1a: ratio of transient replicon EC50s, C316Y / 1a H77
Procedure: as §1

[13] = strain 1b BB7, 5% FBS + 40% human plasma, read-out: 1b BB7 5% FBS + 40% Human Plasma EC50
[14] = strain 1b BB7, 5% FBS, no human plasma, read-out: 1b BB7 5% FBS EC50
[15] = strain 1b BB7, 5% FBS, read-out: 1b BB7 5% FBS EC50
[16] = 5% FBS, absence of human plasma, read-out: Stable Replicon 1a H77 5% FBS EC50
[17] = strain 1a H77, 5% FBS + 40% human plasma, read-out: 1a H77 5% FBS + 40% Human Plasma EC50
[18] = strain 1a H77, 5% FBS, no human plasma, read-out: 1a H77 5% FBS EC50
[19] = strain 1a H77, 5% FBS, read-out: 1a H77 5% FBS EC50

T1 sequence (P27958 2421-2990): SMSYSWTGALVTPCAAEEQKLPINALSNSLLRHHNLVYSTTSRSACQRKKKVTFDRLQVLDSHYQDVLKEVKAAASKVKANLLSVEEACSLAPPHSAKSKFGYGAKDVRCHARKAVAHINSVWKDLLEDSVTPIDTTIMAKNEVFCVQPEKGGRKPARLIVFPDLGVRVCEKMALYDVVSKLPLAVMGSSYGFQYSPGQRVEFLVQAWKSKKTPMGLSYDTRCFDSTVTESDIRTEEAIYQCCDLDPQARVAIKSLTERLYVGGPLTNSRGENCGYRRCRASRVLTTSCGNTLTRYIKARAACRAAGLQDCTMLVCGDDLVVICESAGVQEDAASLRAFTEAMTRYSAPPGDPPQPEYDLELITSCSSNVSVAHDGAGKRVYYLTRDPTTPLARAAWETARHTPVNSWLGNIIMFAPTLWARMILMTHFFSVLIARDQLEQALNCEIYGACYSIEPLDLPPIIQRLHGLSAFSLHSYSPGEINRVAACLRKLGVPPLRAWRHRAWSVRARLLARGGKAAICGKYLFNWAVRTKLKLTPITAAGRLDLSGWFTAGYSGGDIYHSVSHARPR
T3 sequence (P26663 2420-2989): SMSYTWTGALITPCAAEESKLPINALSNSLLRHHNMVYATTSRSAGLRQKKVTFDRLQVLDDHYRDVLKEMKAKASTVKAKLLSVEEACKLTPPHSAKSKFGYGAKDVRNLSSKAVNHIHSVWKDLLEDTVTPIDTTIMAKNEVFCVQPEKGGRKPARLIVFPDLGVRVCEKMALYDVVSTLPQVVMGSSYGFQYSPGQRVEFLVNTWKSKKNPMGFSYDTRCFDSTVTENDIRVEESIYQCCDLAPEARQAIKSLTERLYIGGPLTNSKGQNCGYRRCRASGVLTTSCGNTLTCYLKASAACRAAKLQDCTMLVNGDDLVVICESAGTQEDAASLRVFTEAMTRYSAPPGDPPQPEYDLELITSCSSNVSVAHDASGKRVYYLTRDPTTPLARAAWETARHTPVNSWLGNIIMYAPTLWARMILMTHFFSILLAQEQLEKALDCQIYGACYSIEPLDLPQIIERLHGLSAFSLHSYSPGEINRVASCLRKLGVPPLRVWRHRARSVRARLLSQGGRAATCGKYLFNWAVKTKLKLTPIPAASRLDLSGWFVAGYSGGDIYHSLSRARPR
T2 sequence (P27958 2421-2990 C2736Y): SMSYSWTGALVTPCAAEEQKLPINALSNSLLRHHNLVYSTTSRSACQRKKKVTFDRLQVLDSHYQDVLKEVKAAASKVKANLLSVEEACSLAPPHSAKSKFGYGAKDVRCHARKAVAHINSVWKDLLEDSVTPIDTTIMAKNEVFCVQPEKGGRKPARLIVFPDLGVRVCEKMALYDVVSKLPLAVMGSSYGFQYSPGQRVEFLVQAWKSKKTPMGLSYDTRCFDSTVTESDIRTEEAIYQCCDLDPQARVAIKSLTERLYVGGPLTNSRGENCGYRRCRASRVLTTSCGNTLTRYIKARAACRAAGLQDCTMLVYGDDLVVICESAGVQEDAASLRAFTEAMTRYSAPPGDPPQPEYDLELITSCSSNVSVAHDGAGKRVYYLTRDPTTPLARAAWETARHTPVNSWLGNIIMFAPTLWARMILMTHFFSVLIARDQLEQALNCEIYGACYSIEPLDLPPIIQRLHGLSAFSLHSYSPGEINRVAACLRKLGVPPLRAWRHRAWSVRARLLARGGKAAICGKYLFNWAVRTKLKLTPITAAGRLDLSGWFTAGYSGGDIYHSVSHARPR

Structure (SMILES)	EC50 [1, 13] [nM]	EC50 [1, 14] [nM]	EC50 [1, 15] [nM]	EC50 [2] [nM]	EC50 [3] [nM]	EC50 [4] [nM]	EC50 [5] [nM]	IC50 [6] [nM]	C316Y/1a Fold Resistance [7] [fold]	IC50 [8] [nM]	EC50 [9, 16] [nM]	EC50 [9, 17] [nM]	EC50 [9, 18] [nM]	EC50 [9, 19] [nM]	IC50 [10] [nM]	EC50 [11] [nM]	EC50 [12] [nM]	Transient Replicon Fold Resistance C316Y/1a [12] [fold]
CS(=O)(=O)Nc1cc2oc(-c3ccc(F)cc3)c(-c3ncc[nH]3)c2cc1C1CC1 [Example 1, N-[5-cyclopropyl-2-(4-fluorophenyl)-3-(1H-imidazol-2-yl)-1-benzofuran-6-yl]methanesulfonamide]	281	18.2	18.2	13	192	223	219	5.9	304	1800	207	4710	207	207	87	242		
CC(C)CCN(c1cc2oc(-c3ccc(F)cc3)c(C3=NOC(C)N3)c2cc1C1CC1)S(C)(=O)=O (stereo not shown) [Example 14, N-[5-cyclopropyl-2-(4-fluorophenyl)-3-(5-methyl-4,5-dihydro-1,2,4-oxadiazol-3-yl)-1-benzofuran-6-yl]-N-(3-methylbutyl)methanesulfonamide]	1060	93.5	93.5		28.1			8.5	8	70	24.3	805	24.3	24.3	35		152	5
CCCN(c1cc2oc(-c3ccc(F)cc3)c(-c3ncc[nH]3)c2cc1C1CC1)S(C)(=O)=O [Example 64, N-[5-cyclopropyl-2-(4-fluorophenyl)-3-(1H-imidazol-2-yl)-1-benzofuran-6-yl]-N-propylmethanesulfonamide]	110	12	12	1.6	20.2	57.9	67.4	5.3	34	180	24.3	267	24.3	24.3	29	125		
CC(C)CN(c1cc2oc(-c3ccc(F)cc3)c(-c3ncc[nH]3)c2cc1C1CC1)S(C)(=O)=O [Example 66, N-[5-cyclopropyl-2-(4-fluorophenyl)-3-(1H-imidazol-2-yl)-1-benzofuran-6-yl]-N-isobutylmethanesulfonamide]	569	56.4	56.4	83.9	68.9	215	293	5.9	152	901	59.8	683	59.8	59.8	70	318		
CS(=O)(=O)N(CCCC(=O)O)c1cc2oc(-c3ccc(F)cc3)c(C3=NOCCN3)c2cc1C1CC1 [Example 135, 4-{[5-cyclopropyl-3-(5,6-dihydro-4H-1,2,4-oxadiazin-3-yl)-2-(4-fluorophenyl)-1-benzofuran-6-yl](methylsulfonyl)amino}butanoic acid]	5520	783	783		372			3.9	11	41	969	7910	969	969	28		3040	8
CS(=O)(=O)N(CCC/C(N)=N/O)c1cc2oc(-c3ccc(F)cc3)c(C3=NOCCN3)c2cc1C1CC1 [Example 181, (1Z)-4-{[5-cyclopropyl-3-(5,6-dihydro-4H-1,2,4-oxadiazin-3-yl)-2-(4-fluorophenyl)-1-benzofuran-6-yl](methylsulfonyl)amino}-N′-hydroxybutanimidamide]	702	46	46	108		785	548	10	10	103	55.7	611	55.7	55.7	56	594		
CS(=O)(=O)N(CCCc1noc(=O)[nH]1)c1cc2oc(-c3ccc(F)cc3)c(C3=NOCCN3)c2cc1C1CC1 [Example 182, N-[5-cyclopropyl-3-(5,6-dihydro-4H-1,2,4-oxadiazin-3-yl)-2-(4-fluorophenyl)-1-benzofuran-6-yl]-N-[3-(5-oxo-4,5-dihydro-1,2,4-oxadiazol-3-yl)propyl]methanesulfonamide]	5250	310	310	661		1000	1000	7	4	26	356	4230	356	356	44	> 1000		
CS(=O)(=O)N(CCCc1noc(=S)[nH]1)c1cc2oc(-c3ccc(F)cc3)c(C3=NOCCN3)c2cc1C1CC1 [Example 183, N-[5-cyclopropyl-3-(5,6-dihydro-4H-1,2,4-oxadiazin-3-yl)-2-(4-fluorophenyl)-1-benzofuran-6-yl]-N-[3-(5-thioxo-4,5-dihydro-1,2,4-oxadiazol-3-yl)propyl]methanesulfonamide]	2200	88	88	306		1000	1000	6	4	22	104	2060	104	104	39	> 1000		
CS(=O)(=O)N(CCCc1nsc(=O)[nH]1)c1cc2oc(-c3ccc(F)cc3)c(C3=NOCCN3)c2cc1C1CC1 [Example 184, N-[5-cyclopropyl-3-(5,6-dihydro-4H-1,2,4-oxadiazin-3-yl)-2-(4-fluorophenyl)-1-benzofuran-6-yl]-N-[3-(5-oxo-4,5-dihydro-1,2,4-thiadiazol-3-yl)propyl]methanesulfonamide]	1090	28	28	84		539	353	17	35	599	69.7	1870	69.7	69.7	156	507		

Source: patent US20160355530A1, “HEPATITIS C INHIBITORS AND USES THEREOF” (AbbVie Inc., priority 2010, published 2016)
